Consider one compound from patent US8314150B2, “Kinase protein binding inhibitors” (priority 2008, dated 2012).

One series relates to pancreatic tumor cells. In words: Cell adhesion assay on collagen-coated plates, pancreatic tumor cells. It is filed as cell-based, human. As to the method: (§1) Cell Viability Assay—The Cells were treated with peptides for 24 hours at different peptide concentrations. The 3-(4,5-dimethylthiazol-2-yl)-5-(3-carboxymethoxyphenyl)-2-(4-sulfophenyl)-2H-tetrazolium compound from Promega Viability kit (Madison, Ill.) was added, and the cells were incubated at 37° C. for 1-2 hours. The optical density on 96-plate was analyzed with a microplate reader at 490 nm to determine cell viability. In addition, cells were stained with trypan blue after 24 hours of treatment with Y15 and the percent of cells that stained positive were determined with a hemacytometer. […] Then 2% SDS was added to the dried plated and OD at 590 nm was measured for detecting cell adhesion. […] Protein concentrations were determined using a Bio-Rad Kit. The boiled samples were loaded on Ready SDS-10% PAGE gels (Bio Rad, Inc) and used for Western blot analysis with the protein-specific antibody. […] Detachment Assay—Cells were plated with and without inhibitors for 24 hours, and detached and attached cells were counted in a hemocytometer. We calculated the percent of detachment by dividing the number of detached cells by the total number of cells. The percent of detached cells was calculated in three independent experiments. […] For each experiment 300 cells per treatment were counted. […]

In series [1] the test system is BT474 cells. The series can be described thus: Apoptosis assay (Hoechst staining), BT474. In kind it is cell-based. As to the method: (§2) Cell Viability Assay—The Cells were treated with peptides for 24 hours at different peptide concentrations. The 3-(4,5-dimethylthiazol-2-yl)-5-(3-carboxymethoxyphenyl)-2-(4-sulfophenyl)-2H-tetrazolium compound from Promega Viability kit (Madison, Ill.) was added, and the cells were incubated at 37° C. for 1-2 hours. The optical density on 96-plate was analyzed with a microplate reader at 490 nm to determine cell viability. In addition, cells were stained with trypan blue after 24 hours of treatment with Y15 and the percent of cells that stained positive were determined with a hemacytometer. Cell adhesion assay—The poly-L-Lysine or Collagen (5 μg/ml) coated 96-well plates were blocked with the blocking buffer (medium with 0.5% BSA) for 1 hour at 37 C. The cells were pre-treated with drugs for 3 hours and plated for adhesion at 4×10^5 cells. Cells were incubated at 37 C for 1 hour, fixed in 3.7% formaldehyde, washed in 0.1% BSA in PBS and stained with crystal violet (5 mg/ml in 2% ethanol) for 10 minutes. Then 2% SDS was added to the dried plated and OD at 590 nm was measured for detecting cell adhesion. […] Protein concentrations were determined using a Bio-Rad Kit. The boiled samples were loaded on Ready SDS-10% PAGE gels (Bio Rad, Inc) and used for Western blot analysis with the protein-specific antibody. […] Detachment Assay—Cells were plated with and without inhibitors for 24 hours, and detached and attached cells were counted in a hemocytometer. We calculated the percent of detachment by dividing the number of detached cells by the total number of cells. The percent of detached cells was calculated in three independent experiments. […] The percent of apoptotic cells was calculated as a ratio of apoptotic detached cells divided by the total number of cells in three independent experiments in several fields with the fluorescent microscope. For each experiment 300 cells per treatment were counted. In vitro Kinase Assay—10 μCi of [γ-^32P]-ATP in a kinase buffer (20 mM HEPES, pH 7.4, 5 mM MgCl2, 5 mM MnCl2, 0.1 mM Na3VO4 with 0.1 μg of purified FAK protein were incubated in a kinase buffer with 10 μCi of [γ-^32P]-ATP. The kinase reaction was performed for 5 minutes at room temperature and stopped by addition of 2× Laemmli buffer. Proteins were separated on a Ready SDS-10% PAGE gel, and the phosphorylated enolase was visualized by autoradiography. KinaseProfiler screening—Kinase specificity screening was performed with KinaseProfiler™ Service (Millipore) available on http://www.millipore.com/drugdiscovery/dd3/KinaseProfiler. […]

The next series concerns the target T1, IGF-1 (Homo sapiens, UniProt P08069).
T1 construct: purchased Millipore KinaseProfiler Service (Upstate Biotechnology, Inc)
The series can be described thus: KinaseProfiler screening. In kind it is biochemical. Conditions: 1 μM, 10 μM ATP. As to the method: (§3) Cell Viability Assay—The Cells were treated with peptides for 24 hours at different peptide concentrations. The 3-(4,5-dimethylthiazol-2-yl)-5-(3-carboxymethoxyphenyl)-2-(4-sulfophenyl)-2H-tetrazolium compound from Promega Viability kit (Madison, Ill.) was added, and the cells were incubated at 37° C. for 1-2 hours. The optical density on 96-plate was analyzed with a microplate reader at 490 nm to determine cell viability. In addition, cells were stained with trypan blue after 24 hours of treatment with Y15 and the percent of cells that stained positive were determined with a hemacytometer. Cell adhesion assay—The poly-L-Lysine or Collagen (5 μg/ml) coated 96-well plates were blocked with the blocking buffer (medium with 0.5% BSA) for 1 hour at 37 C. The cells were pre-treated with drugs for 3 hours and plated for adhesion at 4×10^5 cells. Cells were incubated at 37 C for 1 hour, fixed in 3.7% formaldehyde, washed in 0.1% BSA in PBS and stained with crystal violet (5 mg/ml in 2% ethanol) for 10 minutes. Then 2% SDS was added to the dried plated and OD at 590 nm was measured for detecting cell adhesion. Western Blotting—Cells or homogenized tumor samples were washed twice with cold 1×PBS and lysed on ice for 30 minutes in a buffer containing: 50 mM Tris-HCl (pH 7.5), 150 mM NaCl, 1% Triton-X, 0.5% NaDOC, 0.1% SDS, 5 mM EDTA, 50 mM NaF, 1 mM NaVO3, 10% glycerol and protease inhibitors: 10 μg/ml leupeptin, 10 μg/ml PMSF and 1 μg/ml aprotinin. The lysates were cleared by centrifugation at 10,000 rpm for 30 minutes at 4° C. Protein concentrations were determined using a Bio-Rad Kit. The boiled samples were loaded on Ready SDS-10% PAGE gels (Bio Rad, Inc) and used for Western blot analysis with the protein-specific antibody. Immunoblots were developed with chemiluminescence Renaissance reagent (NEN Life Science Products, Inc). Immunoprecipitation. Immunoprecipitation was performed according to the standard protocol. In brief, the pre-cleared lysates with equal amount of protein were incubated with 1 μg of primary antibody and 30 μl A/G agarose beads overnight at 4° C. The precipitates were washed with lysis buffer three times and re-suspended in 2× Laemmli buffer. The boiled samples were used for Western blotting, as described above. Detachment Assay—Cells were plated with and without inhibitors for 24 hours, and detached and attached cells were counted in a hemocytometer. We calculated the percent of detachment by dividing the number of detached cells by the total number of cells. The percent of detached cells was calculated in three independent experiments. Apoptosis Assay. Detached cells were collected and fixed in 3.7% formaldehyde in 1×PBS solution for the apoptosis assay. Detection of apoptosis was done with Hoechst 33342 staining. The percent of apoptotic cells was calculated as a ratio of apoptotic detached cells divided by the total number of cells in three independent experiments in several fields with the fluorescent microscope. For each experiment 300 cells per treatment were counted. In vitro Kinase Assay—10 μCi of [γ-^32P]-ATP in a kinase buffer (20 mM HEPES, pH 7.4, 5 mM MgCl2, 5 mM MnCl2, 0.1 mM Na3VO4 with 0.1 μg of purified FAK protein were incubated in a kinase buffer with 10 μCi of [γ-^32P]-ATP. The kinase reaction was performed for 5 minutes at room temperature and stopped by addition of 2× Laemmli buffer. Proteins were separated on a Ready SDS-10% PAGE gel, and the phosphorylated enolase was visualized by autoradiography. KinaseProfiler screening—Kinase specificity screening was performed with KinaseProfiler™ Service (Millipore) available on http://www.millipore.com/drugdiscovery/dd3/KinaseProfiler. The screening was performed with 1 μM Y15, 10 μM ATP and kinase substrates on 9 recombinant kinases according to Millipore protocol. Tumor Growth in Nude Mice—Female nude mice, 6 weeks old, were purchased from Harlan Laboratory. […]

The next series deals with T2, Pyk2 (Homo sapiens, UniProt Q14289).
T2 construct: purchased Millipore KinaseProfiler Service (Upstate Biotechnology, Inc)
T2 sequence (Q14289 whole entry): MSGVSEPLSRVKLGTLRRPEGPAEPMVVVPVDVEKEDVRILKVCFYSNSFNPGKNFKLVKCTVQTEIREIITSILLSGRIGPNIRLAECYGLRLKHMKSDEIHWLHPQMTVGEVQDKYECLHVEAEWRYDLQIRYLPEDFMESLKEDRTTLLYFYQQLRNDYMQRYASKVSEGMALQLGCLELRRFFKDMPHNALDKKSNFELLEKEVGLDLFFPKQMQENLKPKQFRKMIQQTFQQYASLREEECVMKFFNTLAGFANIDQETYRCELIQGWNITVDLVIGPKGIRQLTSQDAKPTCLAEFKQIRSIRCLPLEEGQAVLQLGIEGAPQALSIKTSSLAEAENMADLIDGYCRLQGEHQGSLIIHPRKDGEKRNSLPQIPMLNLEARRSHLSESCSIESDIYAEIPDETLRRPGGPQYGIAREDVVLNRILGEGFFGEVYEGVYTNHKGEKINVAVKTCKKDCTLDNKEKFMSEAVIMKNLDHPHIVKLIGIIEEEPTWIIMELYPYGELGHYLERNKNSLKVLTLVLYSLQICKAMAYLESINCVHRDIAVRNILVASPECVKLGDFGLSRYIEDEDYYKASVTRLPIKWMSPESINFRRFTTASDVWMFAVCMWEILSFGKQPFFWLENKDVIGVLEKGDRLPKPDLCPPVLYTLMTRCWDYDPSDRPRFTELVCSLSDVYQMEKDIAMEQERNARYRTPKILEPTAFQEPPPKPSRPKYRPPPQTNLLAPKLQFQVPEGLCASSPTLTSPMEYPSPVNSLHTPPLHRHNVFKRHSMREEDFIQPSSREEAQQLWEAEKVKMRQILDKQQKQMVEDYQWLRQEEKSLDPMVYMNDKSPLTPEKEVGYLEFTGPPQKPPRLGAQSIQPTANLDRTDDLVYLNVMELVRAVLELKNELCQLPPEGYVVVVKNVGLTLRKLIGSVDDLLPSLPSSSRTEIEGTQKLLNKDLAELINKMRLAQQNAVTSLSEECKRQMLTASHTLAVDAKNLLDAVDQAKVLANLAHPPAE
In words: KinaseProfiler screening. It is filed as biochemical. Conditions: 1 μM, 10 μM ATP. As to the method: as §3

For the next series, the target named is T3, Met (Homo sapiens, UniProt P08581).
T3 construct: purchased Millipore KinaseProfiler Service (Upstate Biotechnology, Inc)
In words: KinaseProfiler screening. It is filed as biochemical. Conditions: 1 μM, 10 μM ATP. As to the method: as §3

The next series has as its target T4, PI3K (p110δ/p85α) (Homo sapiens, UniProt O00329).
T4 construct: purchased Millipore KinaseProfiler Service (Upstate Biotechnology, Inc)
In words: KinaseProfiler screening. Particulars: 1 μM, 10 μM ATP. In kind it is biochemical. As to the method: as §3

A further series addresses T5, VEGFR-3 (Homo sapiens, UniProt P35916).
T5 construct: purchased Millipore KinaseProfiler Service (Upstate Biotechnology, Inc)
The series can be described thus: KinaseProfiler screening. In kind it is biochemical. Particulars: 1 μM, 10 μM ATP. As to the method: as §3

Another series deals with T6, EGFR (Homo sapiens, UniProt P00533).
T6 construct: purchased Millipore KinaseProfiler Service (Upstate Biotechnology, Inc)
In words: KinaseProfiler screening. In kind it is biochemical. Conditions: 1 μM, 10 μM ATP. As to the method:
as §3

For a further series, the target named is T7, PDGFR-α (Homo sapiens, UniProt P16234).
T7 construct: purchased Millipore KinaseProfiler Service (Upstate Biotechnology, Inc)
T7 sequence (P16234 24-1089): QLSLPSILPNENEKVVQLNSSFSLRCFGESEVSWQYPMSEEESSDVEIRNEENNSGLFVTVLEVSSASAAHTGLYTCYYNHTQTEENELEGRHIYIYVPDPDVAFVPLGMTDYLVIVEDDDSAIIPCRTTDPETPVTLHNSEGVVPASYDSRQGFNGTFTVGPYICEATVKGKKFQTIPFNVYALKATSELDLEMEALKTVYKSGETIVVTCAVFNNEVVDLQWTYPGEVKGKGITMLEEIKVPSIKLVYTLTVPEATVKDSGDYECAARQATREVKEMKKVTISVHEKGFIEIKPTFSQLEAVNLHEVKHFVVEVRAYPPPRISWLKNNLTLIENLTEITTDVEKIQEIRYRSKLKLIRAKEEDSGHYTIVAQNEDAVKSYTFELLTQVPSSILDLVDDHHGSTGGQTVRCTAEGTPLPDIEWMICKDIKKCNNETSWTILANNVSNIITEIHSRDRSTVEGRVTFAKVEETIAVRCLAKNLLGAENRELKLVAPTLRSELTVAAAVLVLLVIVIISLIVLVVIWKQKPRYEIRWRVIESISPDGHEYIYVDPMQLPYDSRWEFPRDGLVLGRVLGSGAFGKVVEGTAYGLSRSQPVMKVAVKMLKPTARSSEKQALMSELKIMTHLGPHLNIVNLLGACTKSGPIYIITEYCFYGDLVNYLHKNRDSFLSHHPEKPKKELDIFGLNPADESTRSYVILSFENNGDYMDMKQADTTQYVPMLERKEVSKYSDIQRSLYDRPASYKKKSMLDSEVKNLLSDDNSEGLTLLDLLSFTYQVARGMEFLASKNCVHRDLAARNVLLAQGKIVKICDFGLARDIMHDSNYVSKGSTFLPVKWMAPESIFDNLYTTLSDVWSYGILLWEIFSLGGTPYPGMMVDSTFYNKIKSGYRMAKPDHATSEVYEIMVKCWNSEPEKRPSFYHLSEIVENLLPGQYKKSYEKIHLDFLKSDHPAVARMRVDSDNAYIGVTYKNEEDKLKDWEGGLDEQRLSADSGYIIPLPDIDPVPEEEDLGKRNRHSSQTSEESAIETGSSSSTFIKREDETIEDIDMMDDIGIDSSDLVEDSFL
In words: KinaseProfiler screening. In kind it is biochemical. Conditions: 1 μM, 10 μM ATP. As to the method: as §3

In another series the target is T8, c-Src (Homo sapiens, UniProt P12931).
T8 construct: purchased Millipore KinaseProfiler Service (Upstate Biotechnology, Inc)
T8 sequence (P12931 whole entry): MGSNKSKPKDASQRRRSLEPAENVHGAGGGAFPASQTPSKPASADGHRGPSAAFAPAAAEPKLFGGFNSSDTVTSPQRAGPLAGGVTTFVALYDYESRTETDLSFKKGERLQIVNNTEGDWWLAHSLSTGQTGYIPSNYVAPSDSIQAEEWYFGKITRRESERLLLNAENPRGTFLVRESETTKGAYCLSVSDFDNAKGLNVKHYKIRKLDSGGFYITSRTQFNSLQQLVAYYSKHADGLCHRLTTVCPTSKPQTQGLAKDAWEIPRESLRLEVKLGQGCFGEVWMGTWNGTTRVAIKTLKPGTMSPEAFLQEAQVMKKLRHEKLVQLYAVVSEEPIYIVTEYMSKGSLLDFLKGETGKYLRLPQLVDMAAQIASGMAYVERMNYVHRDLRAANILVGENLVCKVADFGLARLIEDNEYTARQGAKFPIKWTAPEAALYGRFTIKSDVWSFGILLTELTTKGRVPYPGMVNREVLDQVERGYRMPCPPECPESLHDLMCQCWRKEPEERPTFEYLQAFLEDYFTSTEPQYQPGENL
The series can be described thus: KinaseProfiler screening. It is filed as biochemical. Conditions: 1 μM, 10 μM ATP. As to the method:
as §3

The target in the next series is T9, c-RAF (Homo sapiens, UniProt P04049).
T9 construct: purchased Millipore KinaseProfiler Service (Upstate Biotechnology, Inc)
T9 sequence (P04049 whole entry): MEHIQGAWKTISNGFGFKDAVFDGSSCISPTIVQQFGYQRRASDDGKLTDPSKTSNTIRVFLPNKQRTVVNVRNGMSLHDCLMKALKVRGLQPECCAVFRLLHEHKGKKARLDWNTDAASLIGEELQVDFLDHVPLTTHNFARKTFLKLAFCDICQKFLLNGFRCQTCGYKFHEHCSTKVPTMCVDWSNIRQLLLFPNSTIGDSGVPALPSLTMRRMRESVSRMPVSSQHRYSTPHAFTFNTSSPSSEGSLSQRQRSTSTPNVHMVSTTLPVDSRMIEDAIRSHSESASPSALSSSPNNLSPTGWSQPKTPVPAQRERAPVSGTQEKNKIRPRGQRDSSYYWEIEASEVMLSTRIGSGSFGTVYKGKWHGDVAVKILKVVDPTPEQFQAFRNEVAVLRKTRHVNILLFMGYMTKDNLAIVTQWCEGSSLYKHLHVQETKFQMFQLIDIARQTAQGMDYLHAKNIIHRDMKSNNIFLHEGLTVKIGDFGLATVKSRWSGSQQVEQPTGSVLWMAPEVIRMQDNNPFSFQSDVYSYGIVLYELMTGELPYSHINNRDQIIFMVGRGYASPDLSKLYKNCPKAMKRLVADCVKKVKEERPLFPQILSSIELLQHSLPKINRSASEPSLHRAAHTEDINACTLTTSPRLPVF
The series can be described thus: KinaseProfiler screening. Particulars: 1 μM, 10 μM ATP. In kind it is biochemical. As to the method:
as §3

Series [2] has as its system Panc-1 and Miapaca-2 cells. The series can be described thus: Trypan blue staining, pancreatic cancer cells. It is filed as cell-based, human. Particulars: increasing doses, 24 hours. As to the method:
as §1

Series [3] relates to BT474 cells. The series can be described thus: Detachment assay, BT474. In kind it is cell-based. Conditions: 24 hours. As to the method: as §3, with “Detached cells were collected and fixed in 3.7% formaldehyde in 1×PBS solution for the apoptosis assay. Detection of apoptosis was done with Hoechst 33342 staining.” left out, “http://www.millipore.com/drugdiscovery/dd3/KinaseProfiler.” for “http://www.millipore.com/drugdiscovery/dd3/KinaseProfiler. The screening was performed with 1 μM Y15, 10 μM ATP and kinase substrates on 9 recombinant kinases according to Millipore protocol. Tumor Growth in Nude Mice—Female nude mice, 6 weeks old, were purchased from Harlan Laboratory.”

A further series concerns ERK1/2 phosphorylation. In words: ERK1/2 phosphorylation in pancreatic cancer cells. Conditions: dose dependent. In kind it is cell-based, human. As to the method: as §1
The subject of series [4] is Y397 phosphorylation of FAK. In words: Western blotting with Y397 FAK antibody, Panc-1 cells. In kind it is cell-based, human. Conditions: 24 hours. As to the method: as §2, with “counted.” for “counted. In vitro Kinase Assay—10 μCi of [γ-^32P]-ATP in a kinase buffer (20 mM HEPES, pH 7.4, 5 mM MgCl2, 5 mM MnCl2, 0.1 mM Na3VO4 with 0.1 μg of purified FAK protein were incubated in a kinase buffer with 10 μCi of [γ-^32P]-ATP. The kinase reaction was performed for 5 minutes at room temperature and stopped by addition of 2× Laemmli buffer. Proteins were separated on a Ready SDS-10% PAGE gel, and the phosphorylated enolase was visualized by autoradiography. KinaseProfiler screening—Kinase specificity screening was performed with KinaseProfiler™ Service (Millipore) available on http://www.millipore.com/drugdiscovery/dd3/KinaseProfiler.”

T1 sequence (P08069 31-1367): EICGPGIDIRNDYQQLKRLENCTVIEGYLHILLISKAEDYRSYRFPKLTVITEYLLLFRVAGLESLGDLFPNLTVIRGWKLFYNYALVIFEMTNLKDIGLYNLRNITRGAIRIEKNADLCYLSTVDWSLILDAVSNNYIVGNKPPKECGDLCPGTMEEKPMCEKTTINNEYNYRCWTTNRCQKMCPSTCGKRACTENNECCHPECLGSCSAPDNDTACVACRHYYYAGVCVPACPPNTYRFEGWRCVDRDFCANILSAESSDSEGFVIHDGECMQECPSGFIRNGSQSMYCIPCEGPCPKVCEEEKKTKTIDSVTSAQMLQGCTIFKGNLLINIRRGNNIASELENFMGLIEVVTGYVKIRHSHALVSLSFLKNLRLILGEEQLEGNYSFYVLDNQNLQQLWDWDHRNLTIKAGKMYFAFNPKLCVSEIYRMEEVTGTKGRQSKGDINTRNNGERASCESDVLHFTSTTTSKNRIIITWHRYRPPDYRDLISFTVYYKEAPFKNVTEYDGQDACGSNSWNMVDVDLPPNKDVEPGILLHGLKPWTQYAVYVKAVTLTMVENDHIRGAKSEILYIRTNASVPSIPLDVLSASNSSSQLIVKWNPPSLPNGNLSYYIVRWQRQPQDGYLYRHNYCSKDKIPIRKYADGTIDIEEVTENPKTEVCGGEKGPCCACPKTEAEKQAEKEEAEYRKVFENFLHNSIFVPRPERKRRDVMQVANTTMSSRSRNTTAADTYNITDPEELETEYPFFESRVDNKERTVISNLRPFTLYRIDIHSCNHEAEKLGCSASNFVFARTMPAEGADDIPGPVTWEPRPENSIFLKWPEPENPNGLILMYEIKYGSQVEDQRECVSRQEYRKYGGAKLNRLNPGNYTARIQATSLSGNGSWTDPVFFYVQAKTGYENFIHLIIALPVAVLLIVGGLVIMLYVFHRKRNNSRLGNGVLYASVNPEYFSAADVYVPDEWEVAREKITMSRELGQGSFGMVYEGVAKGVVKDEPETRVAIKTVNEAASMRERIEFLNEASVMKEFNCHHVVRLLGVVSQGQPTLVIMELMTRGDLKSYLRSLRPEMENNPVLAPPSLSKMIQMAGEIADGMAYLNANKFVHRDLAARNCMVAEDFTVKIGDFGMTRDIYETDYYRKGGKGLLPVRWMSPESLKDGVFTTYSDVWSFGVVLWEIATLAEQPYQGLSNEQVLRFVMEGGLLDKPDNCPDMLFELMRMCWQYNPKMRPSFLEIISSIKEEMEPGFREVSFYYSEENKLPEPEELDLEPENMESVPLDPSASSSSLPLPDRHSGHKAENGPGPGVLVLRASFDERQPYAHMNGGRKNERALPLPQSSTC

In the case of `Cl.Cl.Cl.Cl.Nc1cc(N)c(N)cc1N` [Y15, 1,2,4,5-benzenetetraamine tetrahydrochloride], the cell adhesion result in the series with pancreatic tumor cells (50 μM) was “decreased adhesion in a similar fashion to 50 μM of TAE226”. The “dose from which cell adhesion was significantly decreased” value in the series on pancreatic tumor cells (collagen-coated plates) amounted to 10 µM. For the same compound, the “apoptotic nuclei (Hoechst)” value with BT474 cells [1] (200 μM) is given as “No apoptotic nuclei were detected”. In the series on BT474 cells [1] (50-100 μM), the apoptotic levels entry is “less than 6%”. Also, the kinase activity entry on IGF-1, on Pyk2, at Met, on PI3K (p110δ/p85α), on VEGFR-3 and on EGFR was “did not significantly decrease kinase activity” each time. The kinase activity entry at PDGFR-α, at c-Src and on c-RAF was “did not significantly decrease kinase activity” in each case. In addition, the “cell viability (trypan blue)” value in [2] is “decreased cell viability indicative of necrosis”. In addition, the detachment in the series with BT474 cells [3] (10 μM) was determined as 8%; in the series with BT474 cells [3] (50 μM) it was 38%; in the series with BT474 cells [3] (100 μM), 58%. Moreover, in the series on ERK1/2 phosphorylation, the p-ERK entry is listed as “down regulated”. The “inhibition of Y397 phosphorylation compared with TAE226” value in series [4] (100 μM) is “same or better inhibition as TAE226”. The “dose from which Y397 phosphorylation of FAK was inhibited” value in [4] stood at 0.1 µM. Moreover, the “total FAK level” value in [4] (higher doses) was “down regulated”.
